From EP1383793B1 (priority 2000, dated 2001)
Positions of bridges follow the written chain, without caps; N, C: chain ends. Residues, ends and D or L forms follow the SMILES beside them. *: point of attachment. Biotin = O=C1N[C@H]2[C@H](CS[C@H]2CCCCC(=O)*)N1

Experiments:
IR [1] = target: T1, IR (Homo sapiens, UniProt P06213); experiment: Phage ELISA, binding of phage-displayed peptides to IR
T1 construct: composed of the extracellular domains of both the α and β chains of the natural receptor; made in house; background b13 names human embryonic kidney 293 cells for the Bass et al. construct
T1 sequence (P06213 28-758 limits assumed): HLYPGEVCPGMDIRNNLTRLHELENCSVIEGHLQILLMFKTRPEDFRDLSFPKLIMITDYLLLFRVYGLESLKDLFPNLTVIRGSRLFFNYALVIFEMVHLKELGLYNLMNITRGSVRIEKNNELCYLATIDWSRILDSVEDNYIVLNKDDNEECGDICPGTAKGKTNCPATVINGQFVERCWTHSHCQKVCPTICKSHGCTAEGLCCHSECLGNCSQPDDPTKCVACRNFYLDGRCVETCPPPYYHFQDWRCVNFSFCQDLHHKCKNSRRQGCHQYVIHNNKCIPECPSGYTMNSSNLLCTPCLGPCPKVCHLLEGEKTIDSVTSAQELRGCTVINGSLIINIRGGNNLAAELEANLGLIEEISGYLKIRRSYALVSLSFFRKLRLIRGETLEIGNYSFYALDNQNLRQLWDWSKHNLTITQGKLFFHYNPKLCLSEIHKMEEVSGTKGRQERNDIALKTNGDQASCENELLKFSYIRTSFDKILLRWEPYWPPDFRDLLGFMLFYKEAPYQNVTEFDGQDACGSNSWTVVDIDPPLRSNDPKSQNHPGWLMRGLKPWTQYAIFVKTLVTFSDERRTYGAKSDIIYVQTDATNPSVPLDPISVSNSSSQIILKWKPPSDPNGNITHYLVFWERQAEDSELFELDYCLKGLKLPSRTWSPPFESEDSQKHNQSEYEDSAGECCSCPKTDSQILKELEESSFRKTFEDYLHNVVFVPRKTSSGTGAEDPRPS
T1 sequence (P06213 763-956 limits assumed): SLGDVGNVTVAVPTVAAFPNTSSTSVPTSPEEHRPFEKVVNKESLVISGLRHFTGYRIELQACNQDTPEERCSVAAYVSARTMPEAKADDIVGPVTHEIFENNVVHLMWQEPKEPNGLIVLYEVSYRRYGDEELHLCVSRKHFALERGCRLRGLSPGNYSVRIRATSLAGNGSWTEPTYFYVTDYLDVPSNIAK
Method: Amino acid sequences comprising the motif of Formulas 1 through 10. […] Fifty microliters of this solution was added to an appropriate number of wells in a 96-well microtiter plate (MaxiSorp plates, Nunc) and incubated overnight at 4°C. […] To isolate specific binders, each library was panned against a soluble form of the human IR. This IR is composed of the extracellular domains of both the α and β chains of the natural receptor, as well as the constant domain from immunoglobulin Fc, retaining the β-α-α-β structure described above. Because the IR is expressed in a eukaryotic system, disulfide bond formation and glycosylation patterns should mimic the wild-type receptor. The details of this recombinant protein construct are described in Bass et al. (1996). Phage ELISA. […] The wells were blocked with 200 µl of MPBS for 1.5 h at RT. […] Peptides were added as noted below and allowed to incubate at RT for 3 h. The plates were washed 3 times with PBST. A solution of 1:3000 diluted HRP:Anti-M13 conjugate at 100 µl per well of was added for 1 h. Following a repeat of the washing, 100 µl of ABTS was added for 15-30 min. […] Phage ELISA. […] Peptides were added as noted below and allowed to incubate at RT for 3 h. […] A solution of 1:3000 diluted HRP:Anti-M13 Conjugate at 100 µl per well of was added for 1 h. Following a repeat of the washing, 100 µl of ABTS was added for 15-30 min. The OD405 was measured using a SpectraMax 340 Microplate Spectrophotometer.

IR [2] = target: T1, IR; experiment: Phage ELISA, competition of phage binding by soluble synthetic peptides, IR-coated wells; details: Insulin Receptor
Method: (§2) Peptide Competition. […] Twenty microliters of the stock synthetic-peptide solution was added to Row A. A series of 20 µl into 100 µl dilutions were performed until Row G. Twenty microliters were discarded from Row G to maintain 100 µl per well. Row H was reserved as no peptide wells. […] The volume was maintained by the addition of 18 µl of the phage solution to Row A.
(§3) Phage ELISA. […] The wells were blocked with 200 µl of 2% (w/v) Carnation non-fat dry milk in PBS for 1.5 h at RT. Phage were added at 100 µl per well. Peptides were added as noted below and allowed to incubate at RT for 3 h. The plates were washed 3X with PBST. A solution of 1:3000 diluted HRP:Anti-M13 Conjugate at 100 µl per well of was added for 1 h. Following a repeat of the washing, 100 µl of ABTS was added for 15-30 min. The OD405 was measured using a SpectraMax 340 Microplate Spectrophotometer.
(§4) Peptide Competition. Peptide Competition Curves were produced during the phage ELISA across rows in triplicate. The stock synthetic peptide solution was added to Column 12 so that the total volume totaled 150 µl (additional phage solution was added when necessary). A serial dilution was made by transferring 50 µl from Column 12 into 100 µl in Column 11, 50 µl from Column 11 into 100 µl in Column 10, and continuing the serial dilution until Column 2. Fifty microliters were discarded from Column 2 to maintain 100 µl per well. Column 1 was reserved as no peptide wells.
(§5) A p53-like peptide that binds to MDM2 was used as a negative control.

IGF-1R [3] = target: T2, IGF-1R (Homo sapiens, UniProt P08069); experiment: Heterogeneous time-resolved fluorescence (Eu) competitive binding assay on IGF-1R
T2 construct: Soluble IGF-1R was obtained from R&D Systems; purchased R&D Systems 391-GR/CF
T2 sequence (P08069 31-736 limits assumed): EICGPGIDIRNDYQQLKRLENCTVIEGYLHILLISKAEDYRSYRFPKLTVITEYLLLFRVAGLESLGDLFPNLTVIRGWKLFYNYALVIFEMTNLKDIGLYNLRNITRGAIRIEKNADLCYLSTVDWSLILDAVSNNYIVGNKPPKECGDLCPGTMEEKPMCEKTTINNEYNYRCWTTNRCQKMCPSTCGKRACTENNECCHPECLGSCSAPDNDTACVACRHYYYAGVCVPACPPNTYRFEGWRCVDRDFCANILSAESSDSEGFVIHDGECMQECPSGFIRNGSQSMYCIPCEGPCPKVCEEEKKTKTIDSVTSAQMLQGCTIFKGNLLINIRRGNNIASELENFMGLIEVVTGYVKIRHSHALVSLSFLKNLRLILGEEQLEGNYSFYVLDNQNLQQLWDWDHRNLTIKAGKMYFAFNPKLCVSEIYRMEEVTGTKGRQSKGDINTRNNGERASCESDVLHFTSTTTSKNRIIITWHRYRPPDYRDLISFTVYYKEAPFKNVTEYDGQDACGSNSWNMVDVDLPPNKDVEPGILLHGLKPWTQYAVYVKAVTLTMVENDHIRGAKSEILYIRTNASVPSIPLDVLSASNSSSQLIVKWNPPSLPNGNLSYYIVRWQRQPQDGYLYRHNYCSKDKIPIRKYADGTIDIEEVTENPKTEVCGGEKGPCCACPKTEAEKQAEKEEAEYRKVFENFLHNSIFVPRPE
T2 sequence (P08069 741-935 limits assumed): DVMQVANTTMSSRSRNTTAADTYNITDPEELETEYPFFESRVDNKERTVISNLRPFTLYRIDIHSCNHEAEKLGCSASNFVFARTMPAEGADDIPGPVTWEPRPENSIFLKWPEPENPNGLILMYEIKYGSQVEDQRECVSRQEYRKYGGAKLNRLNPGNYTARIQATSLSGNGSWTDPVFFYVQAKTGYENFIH
Method: The TRFD assay format is well established, sensitive, and quantitative (Tompkins et al., 1993).
(§1) In these assays, soluble IGF-1 receptor is coated on the surface of microtiter wells, blocked by PBS containing milk and BSA, and then incubated with biotinylated peptide or rVab. Unbound bP is then washed away and saEu is added to complex with receptor-bound bP. Upon addition of the acidic enhancement solution, the bound europium is released as free Eu^+3 which rapidly forms a highly fluorescent and stable complex with components of the enhancement solution.
The plates were blocked with PBS containing 2% non-fat milk and 0.05% BSA for 2 h at RT, followed by three PBS washes. […] The plates were then washed 5 times with TTBS (TBS buffer containing Tween-20; Wallac) and tapped dry.

IGF-1R [4] = target: T2, IGF-1R; experiment: Phage ELISA, competition of phage binding by soluble synthetic peptides, IGF-1R-coated wells; details: IGF Receptor, H2 Phage
Method: as §2, §3, §4, §5

adipocytes = experiment: 3H-glucose uptake into adipocytes (fat cell assay, FFC); format: cell-based, Mouse; details: Subjective ranking; basal and sub maximal insulin; includes series A
Insulin receptor [5] = target: T3, Insulin receptor (Homo sapiens, UniProt P06213); experiment: Heterogeneous time-resolved fluorescence assay (TRFA) on insulin receptor; format: binding
T3 construct: composed of the extracellular domains of both the α and β chains of the natural receptor; made in house; background b13 names human embryonic kidney 293 cells for the Bass et al. construct
T3 sequence (P06213 28-758 limits assumed): as the sequence (P06213 28-758 limits assumed) above
T3 sequence (P06213 763-956 limits assumed): as the sequence (P06213 763-956 limits assumed) above
Method: In this assay, saEu forms a ternary complex with bP and IR (i.e., IR:bP:saEu complex). The TRFD assay format is well established, sensitive, and quantitative (Tompkins et al., 1993). The assay can use a single-chain antibody or a biotinylated peptide.
as §1, with “IR” for “IGF-1 receptor”, “a solution of 0.5% BSA and 2% non-fat” for “PBS containing”, “in PBS,” for “and BSA,”, “Eu^3+” for “Eu^+3”, “solution. The IR:bP bound saEu is then converted into its highly fluorescent state and detected by a detector such as Wallac Victor II (EG&G Wallac, Inc.)” for “solution.”
• a. Heterogeneous Time-Resolved Fluorescence Assay. […] The plates were blocked with TBS containing 2% milk and 0.5% BSA for 1 h at RT followed by three TBS washes. […] After TBS wash, europium-labeled streptavidin at 1 µg/ml in assay buffer (100 mM Tris-HCl, pH 7.8; 150 mM NaCl; 0.5% BSA; 0.05% bovine Ig; 0.05% NaN3; 0.01% Tween-20) was added to the plates and incubated for 1 h. To test binding of rVab antibodies to IR, Eu-labeled rVab antibodies in assay buffer were added to the plates and incubated for 2 h to overnight. After incubation with Eu-labeled streptavidin (for peptide test) or europium-labeled rVabs, the plates were washed 5 times with Tris-buffered saline (pH 7.5) containing 0.1 % Tween-20 (TTBS) and tapped dry. Sixty microliters of EG&G Wallac enhancement solution (100 mM acetone-potassium hydrogen pthalate, pH 3.2; […] 2-naphtyltrifluoroacetate; […] tri(n-octyl)-phosphine oxide; 0.1 % Triton X-100) was added into each well, and the plates were placed onto a shaker for 20 min at RT. […] Homogeneous Time-Resolved Fluorescence Assay. […] For library screening, 20 µM of small organic molecules in 2 % DMSO are included in the mixture.

[6] = Precipitate in diluted peptide stock prior to adding to the fat cell assay; solubility under assay conditions; format: physicochemical; details: diluted stock prior to adding to assay
[7] = target: human IGF-1 receptor (HIGF-1R) (Homo sapiens, UniProt P08069); experiment: 125I-IGF-1 competition binding assay on solubilised purified receptor
Chain of human IGF-1 receptor (HIGF-1R) (P08069 31-736 limits assumed): as the sequence (P08069 31-736 limits assumed) above
Chain of human IGF-1 receptor (HIGF-1R) (P08069 741-1367 limits assumed): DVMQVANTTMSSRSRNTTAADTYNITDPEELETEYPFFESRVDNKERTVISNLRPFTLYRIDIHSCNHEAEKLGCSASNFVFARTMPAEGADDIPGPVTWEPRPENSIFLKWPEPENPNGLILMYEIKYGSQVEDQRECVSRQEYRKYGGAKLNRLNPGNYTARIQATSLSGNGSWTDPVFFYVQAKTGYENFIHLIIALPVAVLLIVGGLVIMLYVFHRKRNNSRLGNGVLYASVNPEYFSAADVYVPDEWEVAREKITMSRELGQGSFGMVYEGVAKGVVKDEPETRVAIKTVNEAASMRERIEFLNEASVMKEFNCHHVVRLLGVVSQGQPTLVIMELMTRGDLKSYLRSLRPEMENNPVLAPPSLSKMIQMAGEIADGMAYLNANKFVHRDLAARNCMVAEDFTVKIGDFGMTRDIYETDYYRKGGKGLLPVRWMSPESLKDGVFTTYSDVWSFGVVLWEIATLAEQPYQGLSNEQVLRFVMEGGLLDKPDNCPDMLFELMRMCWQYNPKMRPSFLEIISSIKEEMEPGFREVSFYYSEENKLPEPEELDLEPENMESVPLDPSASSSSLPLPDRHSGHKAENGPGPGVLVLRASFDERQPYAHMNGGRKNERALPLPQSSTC

[8] = target: T4, purified insulin receptor (Homo sapiens, UniProt P06213); experiment: Holoenzyme phosphorylation assay (IR autophosphorylation, Western blot); format: biochemical
T4 construct: host or cells: 'Wheat Germ Agglutinin Expression System' (so in the source)
T4 sequence (P06213 28-758 limits assumed): as the sequence (P06213 28-758 limits assumed) above
T4 sequence (P06213 763-1382 limits assumed): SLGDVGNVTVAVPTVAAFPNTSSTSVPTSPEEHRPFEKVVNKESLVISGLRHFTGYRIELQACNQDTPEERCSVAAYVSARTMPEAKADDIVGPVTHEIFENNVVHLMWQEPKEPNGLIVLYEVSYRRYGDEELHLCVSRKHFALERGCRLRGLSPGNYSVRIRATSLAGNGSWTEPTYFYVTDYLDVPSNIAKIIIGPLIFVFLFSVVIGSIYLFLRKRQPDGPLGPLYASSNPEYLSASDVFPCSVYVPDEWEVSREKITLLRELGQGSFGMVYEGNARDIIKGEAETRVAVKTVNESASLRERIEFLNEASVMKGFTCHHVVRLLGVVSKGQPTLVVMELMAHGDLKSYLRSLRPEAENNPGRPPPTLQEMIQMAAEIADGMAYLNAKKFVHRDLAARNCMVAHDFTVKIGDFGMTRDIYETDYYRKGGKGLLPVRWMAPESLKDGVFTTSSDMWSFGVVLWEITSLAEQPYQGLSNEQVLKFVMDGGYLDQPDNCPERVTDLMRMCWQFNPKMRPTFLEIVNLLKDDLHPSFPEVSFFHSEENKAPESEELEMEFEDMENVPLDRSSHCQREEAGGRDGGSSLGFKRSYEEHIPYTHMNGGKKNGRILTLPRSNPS
Method: Alternatively, IR autophosphorylation was determined using a holoenzyme phosphorylation assay. […] The reaction was stopped by adding 50 µl of gel loading buffer containing β-mercaptoethanol (Bio-Rad Laboratories, Inc., Hercules, CA). The samples were run on 4-12% SDS-polyacrylamide gels. Western Blot analysis was performed by transferring the proteins onto nitrocellulose membrane. The membrane was blocked in PBS containing 3% milk overnight. The membrane was incubated with anti-phosphotyrosine 4G10 HRP labeled antibody (Upstate Biotechnology) for 2 h. Protein bands were visualized using SuperSignal West Dura Extended Duration Substrate Chemiluminescence Detection System (Pierce Chemical Co.).

Insulin receptor [9] = target: T3, Insulin receptor; experiment: BIAcore competition: IR pre-incubated with test substance, injected over immobilised insulin; format: binding; details: peptide about 40 µM, IR 450 nM; IR alone 128 RU
Method: Flowcell-1 was used for background binding to correct for any non-specific binding. […] The surface was regenerated with 25 mM NaOH. […] Thus, the system was validated for competition studies. […] The amino acid sequences referred to in the tables are identified in Figures 47 and 48, except the 447 and 2A9 sequences, which are shown below. TABLE 9: BIAcore Results-Fusion Proteins Compete for Binding to IR

IGF-1R [10] = target: T2, IGF-1R; experiment: IGF-1R peptide assay, competition dissociation of 20E2; format: binding; details: peptides 100 µM, IGF-1 30 µM
Method: • a. Preparation of the Assay Mix. […] This mixture was allowed to pre-incubate. • b. 20 µl of Competitor and Buffer were added to a 96-well microtiter plate (Costar Cat. #3912). • c. […] After the original 99 repeat readings were taken, periodic readings were taken until equilibrium had been established. NOTE: Different conditions can be used for these experiments. For example, a 1.1X concentration of assay mix can be initially made. Then first add 10 µl of Competitor and Buffer to the microtiter plate followed by 90 µl of the Assay Mix. • f.

IGF-1R [11] = target: T2, IGF-1R; experiment: Phage ELISA, binding of phage-displayed peptides to IGF-1R; details: 405 nm
Method: Figures 1A-10G. Amino acid sequences comprising the motif of Formulas 1 through 10. […] One hundred microliters of this solution was added to an appropriate number of wells in a 96-well microtiter plate (MaxiSorp plates, Nunc) and incubated overnight at 4°C. […] Subsequent steps are the same for pooled and clonal phage. […] Phage resuspended in MPBS were added to duplicate wells (100 µl/well) and incubated at RT for 1 h. […] Incubation was for 1 h at RT, followed by PBS washes as described. […] Phage ELISA. […] The wells were blocked with 200 µl of MPBS for 1.5 h at RT. Phage were added at 100 µl per well. Peptides were added as noted below and allowed to incubate at RT for 3 h. The plates were washed 3 times with PBST. A solution of 1:3000 diluted HRP:Anti-M13 conjugate at 100 µl per well of was added for 1 h. Following a repeat of the washing, 100 µl of ABTS was added for 15-30 min. […] Phage ELISA. […] Phage were added at 100 µl per well. Peptides were added as noted below and allowed to incubate at RT for 3 h. The plates were washed 3X with PBST. A solution of 1:3000 diluted HRP:Anti-M13 Conjugate at 100 µl per well of was added for 1 h. Following a repeat of the washing, 100 µl of ABTS was added for 15-30 min. The OD405 was measured using a SpectraMax 340 Microplate Spectrophotometer.

SMILES | binding to IR when expressed as phage (IR [1]) | n (Hill plot) (IR [2]; 20D3 Phage) | n (Hill plot) (IR [2]; H2 Phage) | binding of biotinylated peptide to IGF-1 R (IGF-1R [3]) | n (Hill plot) (IGF-1R [4]) | Resp. (adipocytes) | binding of biotinylated peptide to IR (Insulin receptor [5]) | Comments (precipitation) [6] | affinity for HIGF-1R [7] | Ratio ([7]; Kd HIGF1R / Kd HIR) | Absorbance Values IR (IR [1]; 405 nm) | Autophosph. Blot [8] | Result (RUs) (Insulin receptor [9]) | effect on dissociation rate of 20E2 from IGF-1R (IGF-1R [10]) | Absorbance Values sIGF-1R (IGF-1R [11])
CC(C)[C@H](NC(=O)[C@H](Cc1ccccc1)NC(=O)[C@H](Cc1c[nH]c2ccccc12)NC(=O)[C@H](CC(=O)O)NC(=O)[C@H](Cc1ccc(O)cc1)NC(=O)[C@H](Cc1ccccc1)NC(=O)[C@H](CC(N)=O)NC(=O)[C@H](C)NC(=O)[C@H](C)NC(=O)[C@H](CC(=O)O)NC(=O)CNC(=O)[C@H](CS)NC(=O)[C@@H]1CCCN1C(=O)[C@H](CCCNC(=N)N)NC(=O)[C@H](C)NC(=O)[C@H](Cc1c[nH]c2ccccc12)NC(=O)[C@H](CS)NC(=O)[C@H](CC(=O)O)NC(=O)[C@H](CCCCN)NC(=O)[C@H](Cc1ccc(O)cc1)NC(=O)[C@@H](N)CC(=O)O)C(=O)N[C@@H](CCC(N)=O)C(=O)N[C@@H](CCC(N)=O)C(=O)N[C@@H](C)C(=O)N[C@@H](CO)C(=O)N[C@@H](CCCCN)C(=O)N[C@@H](CCCCNC(=O)CCCC[C@@H]1SC[C@@H]2NC(=O)N[C@@H]21)C(N)=O [Clone C1] | do not have detectable binding | 0.83 | 0.46 | nM range | 0.96 | 0 | micromolar range | Precipitates | high affinity | 0.1 |  |  |  |  | 
CC(C)C[C@H](NC(=O)[C@H](Cc1c[nH]c2ccccc12)NC(=O)[C@@H](N)CCCCN)C(=O)N[C@@H](CC(=O)O)C(=O)N[C@@H](CCC(N)=O)C(=O)N[C@@H](CCC(=O)O)C(=O)N[C@@H](Cc1c[nH]c2ccccc12)C(=O)N[C@@H](C)C(=O)N[C@@H](Cc1c[nH]c2ccccc12)C(=O)N[C@H](C(=O)N[C@@H](CCC(N)=O)C(=O)N[C@H]1CSSC[C@@H](C(=O)N2CCC[C@H]2C(=O)N[C@@H](CO)C(=O)N[C@@H](CCCCN)C(=O)N[C@@H](CCCCNC(=O)CCCC[C@@H]2SC[C@@H]3NC(=O)N[C@@H]32)C(N)=O)NC(=O)CNC(=O)[C@H](CCCNC(=N)N)NC(=O)CNC(=O)[C@H](Cc2ccc(O)cc2)NC(=O)[C@H](C(C)C)NC(=O)[C@H](CCC(=O)O)NC1=O)C(C)C [Clone D8] (H-KWLDQEWAWVQCEVYGRGCPSKK(Biotin)-NH2; disulfide 12-19 (inferred); N-terminus assumed) |  |  |  |  |  | -1 |  | Precipitates |  |  | 1.42 | 0 | 41.6 RUs | much slower dissociation rate | 2.19
